Source: US20100305143A1, “PYRROLOPYRIMIDINE COMPOUNDS” (VERNALIS (R & D) LTD., priority 2007, published 2010)

What follows are molecules tested against T1, human adenosine A2B receptors (Homo sapiens, UniProt P29275) (assay: FLIPR calcium flux assay in cells expressing human adenosine A2B receptors). Conditions: expressed human adenosine A2B receptors in mammalian cell lines, from dose response curves, read-out: Activity (IC50 activity range).
T1 construct: expressed in transfected cells
T1 sequence (P29275 1-332): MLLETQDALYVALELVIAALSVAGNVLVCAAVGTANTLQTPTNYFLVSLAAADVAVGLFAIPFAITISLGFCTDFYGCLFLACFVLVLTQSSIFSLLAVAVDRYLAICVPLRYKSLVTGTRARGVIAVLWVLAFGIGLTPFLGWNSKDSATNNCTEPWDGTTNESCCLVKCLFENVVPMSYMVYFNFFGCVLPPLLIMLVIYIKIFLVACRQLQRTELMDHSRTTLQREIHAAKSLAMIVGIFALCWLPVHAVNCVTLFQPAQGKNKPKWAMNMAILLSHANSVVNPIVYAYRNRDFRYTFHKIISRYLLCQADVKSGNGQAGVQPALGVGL
Type: cell-based
Description: The use of a Fluorometric Imaging Plate Reader (FLIPR) to measure calcium flux in Adenosine-receptor expressing cells is a well-established technique. In this assay calcium flux is triggered by receptor activation and measured through the fluorescence of an incorporated calcium-sensitive dye. The potencies shown were determined using expressed human adenosine A2B receptors in mammalian cell lines. Selectivity values were obtained by using mammalian cell lines expressing the human adenosine A1, A2A and A3 receptors. Compound potency was determined from dose response curves and are reported as IC50 values.

IC50 [nM] | SMILES
> 500 | Cn1cc(-c2ccc(S(C)(=O)=O)cc2)c2c(C(=O)c3cccs3)nc(NCc3cccnc3)nc21 [Example 27, {5-(4-Methanesulfonyl-phenyl)-7-methyl-2-[(pyridin-3-ylmethyl)-amino]-7H-pyrrolo[2,3-d]pyrimidin-4-yl}-thiophen-2-yl-methanone]
< 500 | Cc1ccc(C(=O)c2nc(NCc3cccnc3)nc3c2ccn3C)s1 [Example 8, {7-Methyl-2-[(pyridin-3-ylmethyl)-amino]-7H-pyrrolo[2,3-d]pyrimidin-4-yl}-(5-methyl-thiophen-2-yl)-methanone]
> 500 | Cc1ccc(C(=O)c2nc(NCc3ccncc3)nc3c2ccn3C)s1 [Example 10, {7-Methyl-2-[(pyridin-4-ylmethyl)-amino]-7H-pyrrolo[2,3-d]pyrimidin-4-yl}-(5-methyl-thiophen-2-yl)-methanone]
> 500 | O=C(c1cccs1)c1nc(NCc2cccnc2)nc2c1ccn2Cc1ccccc1 [Example 18, {7-Benzyl-2-[(pyridin-3-ylmethyl)-amino]-7H-pyrrolo[2,3-d]pyrimidin-4-yl}-thiophen-2-yl-methanone]
< 500 | Cc1ccc(C(=O)c2nc(NCc3ccccn3)nc3c2ccn3C)s1 [Example 9, {7-Methyl-2-[(pyridin-2-ylmethyl)-amino]-7H-pyrrolo[2,3-d]pyrimidin-4-yl}-(5-methyl-thiophen-2-yl)-methanone]
> 500 | COc1ccccc1-c1cn(C)c2nc(NCc3cccnc3)nc(C(=O)c3cccs3)c12 [Example 29, {5-(2-Methoxy-phenyl)-7-methyl-2-[(pyridin-3-ylmethyl)-amino]-7H-pyrrolo[2,3-d]pyrimidin-4-yl}-thiophen-2-yl-methanone]
> 500 | Cn1c(Cl)cc2c(C(=O)c3cccs3)nc(NCc3cccnc3)nc21 [Example 40, {6-Chloro-7-methyl-2-[(pyridin-3-ylmethyl)-amino]-7H-pyrrolo[2,3-d]pyrimidin-4-yl}-thiophen-2-yl-methanone]
> 500 | O=C(c1cccs1)c1nc(NCc2ccccn2)nc2[nH]ccc12 [Example 14, {2-[(Pyridin-2-ylmethyl)-amino]-7H-pyrrolo[2,3-d]pyrimidin-4-yl}-thiophen-2-yl-methanone]
> 500 | CCCn1ccc2c(C(=O)c3cccs3)nc(NCc3cccnc3)nc21 [Example 21, {7-Propyl-2-[(pyridin-3-ylmethyl)-amino]-7H-pyrrolo[2,3-d]pyrimidin-4-yl}-thiophen-2-yl-methanone]
> 500 | O=C(c1cccs1)c1nc(Cl)nc2[nH]ccc12 [Example 13, (2-Chloro-7H-pyrrolo[2,3-d]pyrimidin-4-yl)-thiophen-2-yl-methanone]
< 500 | CC(Nc1nc(C(=O)c2cccs2)c2ccn(C)c2n1)c1cccnc1 (centres unmarked) [Example 7, [7-Methyl-2-(1-pyridin-3-yl-ethylamino)-7H-pyrrolo[2,3-d]pyrimidin-4-yl]-thiophen-2-yl-methanone]
< 500 | Cn1ccc2c(C(=O)c3cccs3)nc(NCc3cccnc3)nc21 [Example 6, {7-Methyl-2-[(pyridin-3-ylmethyl)-amino]-7H-pyrrolo[2,3d]pyrimidin-4-yl}-thiophen-2-yl-methanone]
> 500 | Cn1cc(-c2ccccc2)c2c(C(=O)c3cccs3)nc(NCc3cccnc3)nc21 [Example 26, {7-Methyl-5-phenyl-2-[(pyridin-3-ylmethyl)-amino]-7H-pyrrolo[2,3-d]pyrimidin-4-yl}-thiophen-2-yl-methanone]
> 500 | O=C(c1cccs1)c1nc(Cl)nc2c1ccn2Cc1ccccc1 [Example 17, (7-Benzyl-2-chloro-7H-pyrrolo[2,3-d]pyrimidin-4-yl)-thiophen-2-yl-methanone]
> 500 | CCCCCn1ccc2c(C(=O)c3cccs3)nc(NCc3cccnc3)nc21 [Example 19, {7-Pentyl-2-[(pyridin-3-ylmethyl)-amino]-7H-pyrrolo[2,3-d]pyrimidin-4-yl}-thiophen-2-yl-methanone]
> 500 | COc1ccc(-c2cn(C)c3nc(NCc4cccnc4)nc(C(=O)c4cccs4)c23)cc1 [Example 28, {5-(4-Methoxy-phenyl)-7-methyl-2-[(pyridin-3-ylmethyl)-amino]-7H-pyrrolo[2,3-d]pyrimidin-4-yl}-thiophen-2-yl-methanone]
< 500 | Cn1c(Cl)cc2c(C(=O)c3cccs3)nc(Cl)nc21 [Example 39, (2,6-Dichloro-7-methyl-7H-pyrrolo[2,3-d]pyrimidin-4-yl)-thiophen-2-yl-methanone]
> 500 | Cn1cc(Br)c2c(C(=O)c3cccs3)nc(NCc3cccnc3)nc21 [Example 25, {5-Bromo-7-methyl-2-[(pyridin-3-ylmethyl)-amino]-7H-pyrrolo[2,3-d]pyrimidin-4-yl}-thiophen-2-yl-methanone]
< 500 | Cn1c(Br)cc2c(C(=O)c3cccs3)nc(Cl)nc21 [Example 35, (6-Bromo-2-chloro-7-methyl-7H-pyrrolo[2,3-d]pyrimidin-4-yl)-thiophen-2-yl-methanone]
> 500 | O=C(c1cccs1)c1nc(NCc2cccnc2)nc2c1ccn2CC1CC1 [Example 20, {7-Cyclopropylmethyl-2-[(pyridin-3-ylmethyl)-amino]-7H-pyrrolo[2,3-d]pyrimidin-4-yl}-thiophen-2-yl-methanone]
